SMILES strings stand for the structures.

For one assay, the system named is NIH3T3 cell. Description: Inhibition of NIH3T3 cell proliferation (CellTiter-Glo). It counts as cell-based. The note with it: Mus musculus, 72 hours, 0.5% FBS. How it is done:
The inhibition effect of the compounds of the present invention on NIH3T3 cell proliferation was determined by the following in vitro test.
The inhibition effect of the compounds of the present invention on NIH3T3 cell proliferation was determined by the following experimental method:
On a 96-well white plate with transparent bottom (3903, Corning), 100 μL of NIH3T3 cell (GNM6, Cell Bank of Typical Culture Collection Committee of Chinese Academy of Sciences) was seeded in a DMEM medium containing 10% FBS in each well. The seeding density is 2000 cells/well. The cells were incubated overnight at 37° C., 5% CO2. After overnight incubation, each well was replaced with 90 μL of DMEM medium containing 0.5% FBS. 10 μl of a 3-fold gradient dilution of the compounds with DMEM medium containing 0.5% FBS was then added, and the plate was incubated for 72 hours in a cell incubator at 37° C., 5% CO2. Finally, 50 μL of CellTiter-Glo (G7573, Promega) was added to each well. After incubation for 10 minutes at room temperature, the chemiluminescence signal values were measured with a Victor 3 microplate reader (PerkinElmer). The IC50 values of the compounds were calculated using Graphpad Prism software based on each concentration of the compound and the corresponding signal value thereof.

In the next assay the target is TGFβRI kinase ALK5 (Homo sapiens (Human), UniProt P36897). Description: Inhibition of TGFβRI kinase ALK5 activity (TGFβRI kinase assay kit, ADP-Glo). It counts as biochemical. The note with it: ATP 50 μM; read-out: IC50 of inhibition effect on TGFβRI kinase ALK5 activity. The procedure, abridged: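 Kinase reaction: 2 ng/μL enzyme in Tris pH 7.5, MgCl2, BSA buffer with 50 μM ATP and 0.2 μg/μL substrate peptide, 2.5 h at 27 °C. ADP formation read by ADP-Glo luminescence over 3-fold compound dilutions; IC50 calculated from signal versus concentration.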
On the technique in general: In ADP-Glo the light output rises with the ADP produced.

Assay [1] has as its target recombinant human VEGFR2 enzyme (Homo sapiens (Human), UniProt P35968). Kind of assay: Inhibition of VEGFR2 kinase activity (Z'-LYTE Kinase Assay Kit). It counts as biochemical. The following applies: ATP 50 μM; read-out: IC50 of inhibition effect on VEGFR2 kinase activity. How it is done:
The inhibition effect of VEGFR2 kinase activity in vitro was determined by the following method.
The inhibition effect of the compounds of the present invention on VEGFR2 kinase activity was determined by the following experimental method:
After reaction at 25° C. for 2 hours, 5 μL of detection reagent was added to each well. […] The IC50 values of the compounds for enzyme inhibition were calculated using Graphpad prism software based on each concentration of the compound and the corresponding signal value thereof.

In assay [2] the test system is Smad signaling pathway of TGFβRI. Description: Inhibition of Smad signaling pathway of TGFβRI (3TP-lux luciferase reporter in HepG2 cell). It counts as cell-based. The note with it: Homo sapiens; HepG2 cell, 3TP-lux plasmid, 18 hours; read-out: IC50 on the inhibition of Smad signaling pathway of TGFβRI. On the technique in general: A reporter such as luciferase makes a cellular process visible.

A further assay concerns the target p38α kinase (Homo sapiens (Human), UniProt Q16539). Description: Inhibition of p38α kinase activity (p38α kinase assay kit, ADP-Glo). The following applies: ATP 50 μM; read-out: IC50 of inhibition effect on p38α kinase activity. It counts as biochemical. The method, then: The inhibition of p38α kinase activity in vitro was determined by the following method.
The inhibition effect of the compounds of the present invention on p38a kinase activity was determined by the following experimental method:
p38α kinase assay kit (V9591, Promega) was used to assay enzyme activity. 2 μl of enzyme solution (the final concentration of enzyme in the reaction system was 0.5 ng/μL) formulated with reaction buffer (40 mM Tris pH 7.5, 20 mM MgCl2, 0.1 mg/ml BSA), 1 μl of a 3-fold gradient dilution of the compounds dissolved in 5% DMSO, and 2 μl of a mixed solution of ATP and p38 substrate peptide (the final concentration of ATP was 50 μM, and the final concentration of substrate was 0.2 μg/μL) were added successively to a 384-well plate (4514, Corning). After reaction at 27° C. for 2.5 hours, 5 μl of ADP-Glo solution in the kit was added to each well, then the plate was placed at 27° C. for 40 minutes. 10 μl of kinase assay reagent was then added to each well, then the plate was placed at 27° C. for 30 minutes. The chemiluminescence signal values were measured with a Victor 3 (PerkinElmer) multi-function microplate reader. The IC50 values of the compounds on enzyme inhibition were calculated using Graphpad prism software based on each concentration of the compound and the corresponding signal value thereof.

Sequence of p38α kinase (Q16539 whole entry): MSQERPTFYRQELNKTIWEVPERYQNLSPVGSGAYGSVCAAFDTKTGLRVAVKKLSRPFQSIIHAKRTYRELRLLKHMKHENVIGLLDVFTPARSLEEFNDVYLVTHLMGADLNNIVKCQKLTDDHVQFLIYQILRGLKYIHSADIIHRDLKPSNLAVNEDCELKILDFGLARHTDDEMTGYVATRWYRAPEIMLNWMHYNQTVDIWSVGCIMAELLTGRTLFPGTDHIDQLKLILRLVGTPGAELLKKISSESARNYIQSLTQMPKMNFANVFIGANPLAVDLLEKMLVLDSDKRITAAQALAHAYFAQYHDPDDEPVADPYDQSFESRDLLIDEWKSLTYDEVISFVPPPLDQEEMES
Sequence of TGFβRI kinase ALK5 (P36897 34-503): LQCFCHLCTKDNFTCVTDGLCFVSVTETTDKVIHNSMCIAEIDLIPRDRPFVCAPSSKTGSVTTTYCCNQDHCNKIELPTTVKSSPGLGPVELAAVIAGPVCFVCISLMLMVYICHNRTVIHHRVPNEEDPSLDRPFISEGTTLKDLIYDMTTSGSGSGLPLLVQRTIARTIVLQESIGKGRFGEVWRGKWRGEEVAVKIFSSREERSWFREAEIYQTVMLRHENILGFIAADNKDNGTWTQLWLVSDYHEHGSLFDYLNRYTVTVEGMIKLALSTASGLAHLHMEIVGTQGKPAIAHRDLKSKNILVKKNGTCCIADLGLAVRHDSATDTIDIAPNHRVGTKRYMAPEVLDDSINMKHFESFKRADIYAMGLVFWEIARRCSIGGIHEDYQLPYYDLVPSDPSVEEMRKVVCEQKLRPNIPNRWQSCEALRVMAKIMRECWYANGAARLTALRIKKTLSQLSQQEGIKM
Sequence of recombinant human VEGFR2 enzyme (P35968 20-1356): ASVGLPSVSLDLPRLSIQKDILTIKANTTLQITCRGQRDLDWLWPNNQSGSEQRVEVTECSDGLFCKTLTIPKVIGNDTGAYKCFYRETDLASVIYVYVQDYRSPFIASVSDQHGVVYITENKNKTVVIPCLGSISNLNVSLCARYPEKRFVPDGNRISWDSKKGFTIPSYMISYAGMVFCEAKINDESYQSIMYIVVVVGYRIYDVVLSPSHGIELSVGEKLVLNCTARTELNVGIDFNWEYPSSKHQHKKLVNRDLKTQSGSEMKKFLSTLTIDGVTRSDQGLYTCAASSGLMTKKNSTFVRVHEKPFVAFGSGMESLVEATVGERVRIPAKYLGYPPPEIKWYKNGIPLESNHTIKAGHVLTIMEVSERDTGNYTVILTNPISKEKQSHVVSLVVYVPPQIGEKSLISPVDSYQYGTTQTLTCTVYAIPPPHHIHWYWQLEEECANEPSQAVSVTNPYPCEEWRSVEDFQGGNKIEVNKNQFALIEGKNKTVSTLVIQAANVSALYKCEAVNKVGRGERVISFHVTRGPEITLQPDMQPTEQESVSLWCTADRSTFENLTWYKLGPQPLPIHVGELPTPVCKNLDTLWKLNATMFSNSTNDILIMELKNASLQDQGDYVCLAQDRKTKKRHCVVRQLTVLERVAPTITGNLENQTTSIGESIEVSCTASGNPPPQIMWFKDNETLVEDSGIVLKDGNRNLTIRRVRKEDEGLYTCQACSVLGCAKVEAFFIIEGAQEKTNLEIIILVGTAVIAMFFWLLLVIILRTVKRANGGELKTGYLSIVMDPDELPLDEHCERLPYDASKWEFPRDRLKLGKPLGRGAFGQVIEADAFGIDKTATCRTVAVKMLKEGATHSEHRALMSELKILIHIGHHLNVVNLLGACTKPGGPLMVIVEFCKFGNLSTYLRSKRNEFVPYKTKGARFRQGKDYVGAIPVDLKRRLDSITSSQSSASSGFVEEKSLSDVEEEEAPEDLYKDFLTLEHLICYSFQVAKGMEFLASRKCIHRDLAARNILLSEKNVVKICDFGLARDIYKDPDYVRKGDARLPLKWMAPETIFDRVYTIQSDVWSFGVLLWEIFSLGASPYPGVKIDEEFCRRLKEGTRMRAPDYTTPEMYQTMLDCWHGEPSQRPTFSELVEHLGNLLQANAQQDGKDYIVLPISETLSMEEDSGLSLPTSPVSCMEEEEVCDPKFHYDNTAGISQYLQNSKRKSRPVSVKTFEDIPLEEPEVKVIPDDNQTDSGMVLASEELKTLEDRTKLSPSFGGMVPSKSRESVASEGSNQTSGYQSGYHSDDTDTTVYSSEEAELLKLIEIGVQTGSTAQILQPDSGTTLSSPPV

The IC50 is the concentration that inhibits the measured activity by half. As to `Cn1cc(-c2cc(-c3c(-c4ccc(F)cn4)nc4n3[C@H]3CC[C@@H]4C3)ccn2)cn1` [Example 40-1, (5S,8R)-2-(5-Fluoropyridin-2-yl)-3-(2-(1-methyl-1H-pyrazol-4-yl)pyridin-4-yl)-5,6,7,8-tetrahydro-5,8-methanoimidazo[1,2-a]pyridine], the IC50 with NIH3T3 cell came to 42 nM; at TGFβRI kinase ALK5, 10 nM; in assay [1], 2080 nM; in assay [2], 18 nM; at p38α kinase it was 1360 nM.

The values are drawn from US10906905B2, “Five-membered heteroaryl ring bridged ring derivative, preparation method therefor and medical use thereof” (Jiangsu Hengrui Medicine Co., Ltd., priority 2016, dated 2021).
